The values below come from publication PMC10124032, “Toosendanin targeting eEF2 impedes Topoisomerase I & II protein translation to suppress esophageal squamous cell carcinoma growth” (Journal of Experimental & Clinical Cancer Research : CR, 2023).

The target of experiment [1] is T1, eEF2 (eukaryotic translational elongation factor 2) (Homo sapiens, UniProt P13639). Description: SPR (Biacore T200). Also noted: eEF2 protein immobilized on a CM5 chip. In kind it is binding. For orientation: SPR reads the build-up and loss of mass on a sensor chip optically.
In experiment [2] the target is T1, eEF2 (eukaryotic translational elongation factor 2). Description: ITC (KD […]); also SPR (KD […]), CETSA in KYSE510 and […] T cells, GTPase-Glo inhibition of purified eEF2. The class given is binding. On the set-up: eEF2-3 × Flag purified from 293 T cells.

With `O=C(NCCN1CCCC1)c1cc(-c2ccc(CN3CCOCC3)cc2)nc2ccc(F)cc12` [DDD107498], the Kd (usually a measure of binding affinity in units of concentration) in experiment [1] turned out to be 54.1 nM.

`CC(=O)O[C@@H]1C[C@H](O)[C@@]23CO[C@@H](O)[C@]1(C)[C@@H]2C[C@@H](O)[C@]1(C)[C@@H]3C(=O)[C@H](OC(C)=O)[C@@]2(C)[C@H](c3ccoc3)C[C@H]3O[C@]321` [TSN, Toosendanin] returned a dissociation constant (Kd) in experiment [2] of about 16.6 nM.
